Assay results reported in patent publication US20050245399A1, “Pyrazole derivatives as herbicidal compositions containing them” (ISHIHARA SANGYO KAISHA, LTD., priority 2004, published 2005).

What was measured:
Type in all cases: in vivo
[1] = tested on: barnyardgrass (Echinochiloa oryzicola: ECHOR); experiment: Test Example 3 water application herbicidal activity (paddy), ECHOR; conditions: 63 g a.i./ha, water application under submerged condition at 0.5 leaf stage, visually observed 14th day after application; 0 = untreated control, 100 = complete kill
Procedure, shortened: (§1)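 Submerged application in flooded paddy soil (3–4 cm water); weeds treated at 0.5-leaf stage, transplanted rice 4 d after transplanting. Scored visually as % growth control: weeds at 14 d, rice at 21 d.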

[2] = tested on: prickly sida (Sida spinosa L.): SEDSP; experiment: Test Example 1 pre-emergence herbicidal activity, SIDSP; conditions: Rate 63 g a.i./ha, visually observed 20th to 23rd day after application
Procedure, shortened: (§2)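 Visual scoring 20–23 days after treatment gives percent growth control, where 0 equals untreated and 100 means complete kill. Treatment: pre-emergence spray of formulated compound in 500 L/ha water, one day after sowing in upland soil.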

[3] = tested on: rice (Oryza sativa L.): ORYSA; experiment: Test Example 1 pre-emergence herbicidal activity, ORYSA; conditions: Rate 63 g a.i./ha, visually observed 20th to 23rd day after application
Procedure, shortened: as §2

[4] = tested on: soybean (Glycine max Merr.), GLXMA; experiment: Test Example 2 post-emergence (foliage treatment) herbicidal activity, GLXMA; conditions: 63 g a.i./ha
Procedure, shortened: (§3)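 A small sprayer delivered the diluted WP or EC formulation (500 L/ha water, 0.1% v/v spreader) over emerged seedlings in upland soil pots. Damage relative to untreated plants was graded visually from 0 to 100% three weeks or so later (days 20-23).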

[5] = tested on: soybean (Glycine max Merr.): GLXMA; experiment: Test Example 1 pre-emergence herbicidal activity, GLXMA; conditions: Rate 63 g a.i./ha, visually observed 20th to 23rd day after application
Procedure, shortened: as §2

[6] = tested on: corn (Zea mays L.), ZEAMX; experiment: Test Example 2 post-emergence (foliage treatment) herbicidal activity, ZEAMX; conditions: 63 g a.i./ha
Procedure, shortened: as §3

[7] = tested on: velvetleaf (Abutilon theophrasti), ABUTH; experiment: Test Example 2 post-emergence (foliage treatment) herbicidal activity, ABUTH; conditions: 63 g a.i./ha
Procedure, shortened: as §3

[8] = tested on: corn (Zea mays L.): ZEAMX; experiment: Test Example 1 pre-emergence herbicidal activity, ZEAMX; conditions: Rate 63 g a.i./ha, visually observed 20th to 23rd day after application
Procedure, shortened: as §2

[9] = tested on: redroot pigweed (Amaranthus retroflexus L.): AMARE; experiment: Test Example 1 pre-emergence herbicidal activity, AMARE; conditions: Rate 63 g a.i./ha, visually observed 20th to 23rd day after application
Procedure, shortened: as §2

[10] = tested on: redroot pigweed (Amaranthus retroflexus L.), AMARE; experiment: Test Example 2 post-emergence (foliage treatment) herbicidal activity, AMARE; conditions: 63 g a.i./ha
Procedure, shortened: (§4)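 Foliar spray of formulated compound (500 L/ha dilution water, 0.1% v/v spreader) onto young potted plants at defined leaf stages. Scored 0-100% by visual inspection 20-23 d post-spray.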

[11] = tested on: japanese bulrush (Scirpus juncoides: SCPJO); experiment: Test Example 3 water application herbicidal activity (paddy), SCPJO; conditions: 63 g a.i./ha, water application under submerged condition at 0.5 leaf stage, visually observed 14th day after application; 0 = untreated control, 100 = complete kill
Procedure, shortened: as §1

[12] = tested on: green foxtail (Setaria viridis L.), SETVI; experiment: Test Example 2 post-emergence (foliage treatment) herbicidal activity, SETVI; conditions: 63 g a.i./ha
Procedure, shortened: as §3

[13] = tested on: wheat (Triticum aestivum L.): TRZAX; experiment: Test Example 1 pre-emergence herbicidal activity, TRZAX; conditions: Rate 63 g a.i./ha, visually observed 20th to 23rd day after application
Procedure, shortened: as §2

[14] = tested on: japanese ribbon wapato (Sagittaria pygmaea: SA GPY); experiment: Test Example 3 water application herbicidal activity (paddy), SAGPY; conditions: 63 g a.i./ha, water application under submerged condition, tubers planted, visually observed 14th day after application; 0 = untreated control, 100 = complete kill
Procedure, shortened: as §1

[15] = tested on: wheat (Triticum aestivum L.), TRZAX; experiment: Test Example 2 post-emergence (foliage treatment) herbicidal activity, TRZAX; conditions: 63 g a.i./ha
Procedure, shortened: as §3

[16] = tested on: rice (Oryza sativa L.), ORYSA; experiment: Test Example 2 post-emergence (foliage treatment) herbicidal activity, ORYSA; conditions: 63 g a.i./ha
Procedure, shortened: as §4

[17] = tested on: crabgrass (Digitaria sanguinalis L.), DIGSA; experiment: Test Example 2 post-emergence (foliage treatment) herbicidal activity, DIGSA; conditions: 63 g a.i./ha
Procedure, shortened: as §4

[18] = tested on: rice (Oryza sativa L.: ORYSA); experiment: Test Example 3 water application herbicidal activity (paddy), transplanted rice ORYSA; conditions: 63 g a.i./ha, water application 4th day after transplantation of 2 leaf stage rice, visually observed 21st day after application; 0 = untreated control, 100 = complete kill
Procedure, shortened: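 Rice at 2-leaf stage is transplanted into flooded puddled soil and treated by water application 4 days later, at a predetermined active-ingredient dose. Crop injury is rated visually as growth control (0–100%) 21 days after treatment.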

[19] = tested on: velvetleaf (Abutilon theophrasti): ABUTH; experiment: Test Example 1 pre-emergence herbicidal activity, ABUTH; conditions: Rate 63 g a.i./ha, visually observed 20th to 23rd day after application
Procedure, shortened: as §2

[20] = tested on: prickly sida (Sida spinosa L.), SIDSP; experiment: Test Example 2 post-emergence (foliage treatment) herbicidal activity, SIDSP; conditions: 63 g a.i./ha
Procedure, shortened: as §3

[21] = tested on: barnyardgrass (Echinochloa crus-galli L.), ECHCG; experiment: Test Example 2 post-emergence (foliage treatment) herbicidal activity, ECHCG; conditions: 63 g a.i./ha
Procedure, shortened: as §4

[22] = tested on: crabgrass (Digitaria sanguinalis L.): DIGSA; experiment: Test Example 1 pre-emergence herbicidal activity, DIGSA; conditions: Rate 63 g a.i./ha, visually observed 20th to 23rd day after application
Procedure, shortened: as §2

[23] = tested on: barnyardgrass (Echinochloa crus-galli L.): ECHCG; experiment: Test Example 1 pre-emergence herbicidal activity, ECHCG; conditions: Rate 63 g a.i./ha, visually observed 20th to 23rd day after application
Procedure, shortened: as §2

[24] = tested on: green foxtail (Setaria viridis L.): SETVI; experiment: Test Example 1 pre-emergence herbicidal activity, SETVI; conditions: Rate 63 g a.i./ha, visually observed 20th to 23rd day after application
Procedure, shortened: as §2

Question: With `COc1c(Cl)cc(F)c(-c2nn(C)c(OC(F)F)c2Cl)c1NC(=O)c1ccc(F)cc1F` [Compound 1-30] as the compound, how does the “growth controlling degrees (%) ECHOR” value [1] read?
Answer: The value was 100%.

Question: What about the “Pre-emergence Herbicidal Activity SIDSP (growth controlling degree)” value [2] of the same compound?
Answer: The value was 100%.

Question: What about the “Pre-emergence Herbicidal Activity ORYSA (growth controlling degree)” value [3] of the same compound?
Answer: Its value is 10%.

Question: And the “growth controlling degree, GLXMA” value [4]?
Answer: Its value is 95%.

Question: What about the “Pre-emergence Herbicidal Activity GLXMA (growth controlling degree)” value [5] of the same compound?
Answer: The value was 10%.

Question: What about the “growth controlling degree, ZEAMX” value [6] of the same compound?
Answer: Its value is 60%.

Question: And the “growth controlling degree, ABUTH” value [7]?
Answer: The value was 100%.

Question: And the “Pre-emergence Herbicidal Activity ZEAMX (growth controlling degree)” value [8]?
Answer: The value was 10%.

Question: And the “Pre-emergence Herbicidal Activity AMARE (growth controlling degree)” value [9]?
Answer: Its value is 100%.

Question: What about the “growth controlling degree, AMARE” value [10] of the same compound?
Answer: Its value is 100%.

Question: What about the “growth controlling degrees (%) SCPJO” value [11] of the same compound?
Answer: Its value is 98%.

Question: And the “growth controlling degree, SETVI” value [12]?
Answer: The value was 100%.

Question: What about the “Pre-emergence Herbicidal Activity TRZAX (growth controlling degree)” value [13] of the same compound?
Answer: Its value is 0%.

Question: And the “growth controlling degrees (%) SAGPY” value [14]?
Answer: The value was 100%.

Question: What about the “growth controlling degree, TRZAX” value [15] of the same compound?
Answer: Its value is 50%.

Question: What about the “growth controlling degree, ORYSA” value [16] of the same compound?
Answer: Its value is 90%.

Question: What about the “growth controlling degree, DIGSP” value [17] of the same compound?
Answer: The value was 100%.

Question: And the “growth controlling degrees (%) ORYSA” value [18]?
Answer: Its value is 60%.

Question: And the “Pre-emergence Herbicidal Activity ABUTH (growth controlling degree)” value [19]?
Answer: The value was 100%.

Question: And the “growth controlling degree, SIDSP” value [20]?
Answer: The value was 100%.

Question: What about the “growth controlling degree, ECHCO” value [21] of the same compound?
Answer: The value was 100%.

Question: What about the “Pre-emergence Herbicidal Activity DIGSP (growth controlling degree)” value [22] of the same compound?
Answer: Its value is 100%.

Question: And the “Pre-emergence Herbicidal Activity ECHCG (growth controlling degree)” value [23]?
Answer: The value was 60%.

Question: What about the “Pre-emergence Herbicidal Activity SETVI (growth controlling degree)” value [24] of the same compound?
Answer: The value was 100%.

Question: What does the source list for `COc1c(Cl)cc(F)c(-c2nn(C)c(OC(F)F)c2Cl)c1NC(=O)/C=C/c1ccccc1` [Compound 1-31]?
Answer: growth controlling degrees (%) ECHOR [1]: 100%; Pre-emergence Herbicidal Activity SIDSP (growth controlling degree) [2]: 100%; Pre-emergence Herbicidal Activity ORYSA (growth controlling degree) [3]: 50%; growth controlling degree, GLXMA [4]: 60%; Pre-emergence Herbicidal Activity GLXMA (growth controlling degree) [5]: 10%; growth controlling degree, ZEAMX [6]: 40%; growth controlling degree, ABUTH [7]: 100%; Pre-emergence Herbicidal Activity ZEAMX (growth controlling degree) [8]: 10%; Pre-emergence Herbicidal Activity AMARE (growth controlling degree) [9]: 100%; growth controlling degree, AMARE [10]: 100%; growth controlling degrees (%) SCPJO [11]: 60%; growth controlling degree, SETVI [12]: 95%; Pre-emergence Herbicidal Activity TRZAX (growth controlling degree) [13]: 10%; growth controlling degrees (%) SAGPY [14]: 95%; growth controlling degree, TRZAX [15]: 20%; growth controlling degree, ORYSA [16]: 60%; growth controlling degree, DIGSP [17]: 80%; growth controlling degrees (%) ORYSA [18]: 40%; Pre-emergence Herbicidal Activity ABUTH (growth controlling degree) [19]: 100%; growth controlling degree, SIDSP [20]: 100%; growth controlling degree, ECHCO [21]: 80%; Pre-emergence Herbicidal Activity DIGSP (growth controlling degree) [22]: 100%; Pre-emergence Herbicidal Activity ECHCG (growth controlling degree) [23]: 80%; Pre-emergence Herbicidal Activity SETVI (growth controlling degree) [24]: 100%
